Reference: PubChem BioAssay AID200 (DTP/NCI, 2004)
“And” between values parts separate entries of the source, which are not always exact repeats. Equal values may be shown once. Toxic doses and inconclusive results are not listed. Where a SMILES comes first, the peptide text is derived from it.

Tested on: B6C3F1 mice, B16 melanoma ip, median survival T/C
Test: NCI In Vivo Anticancer Drug Screen. Data for tumor model B16 Melanoma (intraperitoneal) in B6C3F1 mice
Details: endpoint: median survival time, schedule: Q01DX009 (ip), higher = longer survival
Protocol: The antitumor activity of compounds was measured in mice bearing transplantable tumors. Survival or tumor size were measured and the results are expressed as the measurement made in the treated group (T) divided by the measurement made in the vehicle treated control group (C). The tumor model used in this assay is B16 Melanoma (intraperitoneal) in B6C3F1 mice

[1] = dose: 25.0 mg/kg/injection, vehicle: saline with Tween-80
[2] = dose: 50.0 mg/kg/injection, vehicle: saline with Tween-80
[3] = dose: 100.0 mg/kg/injection, vehicle: saline with Tween-80
[4] = dose: 400.0 mg/kg/injection, vehicle: saline with Tween-80
[5] = dose: 12.5 mg/kg/injection, vehicle: saline with Tween-80
[6] = dose: 200.0 mg/kg/injection, vehicle: saline with Tween-80
[7] = dose: 100.0 mg/kg/injection, vehicle: saline

Compound	T/C [1]	T/C [2]	T/C [3]	T/C [4]	T/C [5]	T/C [6]	also measured
CCOC(=O)Nc1cc2c(c(N)n1)N=C(c1ccccc1)CO2	112 % of control and 118 % of control	111 % of control and 118 % of control	115 % of control and 124 % of control	150 % of control and 198 % of control	–	–	T/C (dose: 103.68 mg/kg/injection, vehicle: saline with Tween-80): 106 % of control; T/C (dose: 480.0 mg/kg/injection, vehicle: saline with Tween-80): 165 % of control; T/C (dose: 800.0 mg/kg/injection, vehicle: saline with Tween-80): 172 % of control
NCC(=O)NC(Cc1ccccc1)C(=O)NCC(=O)O (configuration not stated) (HELM PEPTIDE1{G.[O=C(C(Cc1ccccc1)N[*:1])[*:2]].G}$$$$V2.0)	–	–	–	–	–	–	T/C (dose: 100.0 mg/kg/injection, vehicle: Klucel (hydroxypropylcellulose) (HPC)): 103 % of control; T/C (dose: 200.0 mg/kg/injection, vehicle: Klucel (hydroxypropylcellulose) (HPC)): 95 % of control; T/C (dose: 400.0 mg/kg/injection, vehicle: Klucel (hydroxypropylcellulose) (HPC)): 100 % of control
C=C(C)[C@@H]1CC[C@]2(C(=O)OC)CC[C@]3(C)[C@H](CC[C@@H]4[C@@]5(C)CC[C@H](O)C(C)(C)[C@@H]5CC[C@]43C)[C@@H]12	–	–	–	–	–	–	T/C (dose: 25.0 mg/kg/injection, vehicle: Klucel (hydroxypropylcellulose) (HPC)): 107 % of control; T/C (dose: 50.0 mg/kg/injection, vehicle: Klucel (hydroxypropylcellulose) (HPC)): 86 % of control
CC(=O)Nc1ccc(O)c(O)c1	114 % of control and 117 % of control	104 % of control and 105 % of control	113 % of control and 101 % of control	122 % of control and 106 % of control	109 % of control and 112 % of control	113 % of control and 106 % of control	–
O=C1C=C(N2CC2)C(=O)C(N2CC2)=C1N1CC1	–	–	–	–	–	–	T/C (dose: 6.25 micrograms/kg/injection, vehicle: saline): 111 % of control; T/C (dose: 12.5 micrograms/kg/injection, vehicle: saline): 95 % of control; T/C (dose: 25.0 micrograms/kg/injection, vehicle: saline): 113 % of control; T/C (dose: 50.0 micrograms/kg/injection, vehicle: saline): 165 % of control; T/C (dose: 100.0 micrograms/kg/injection, vehicle: saline): 157 % of control
NCC(=O)NC(Cc1ccc(O)cc1)C(=O)O (configuration not stated) (HELM PEPTIDE1{G.[O=C(O)C(Cc1ccc(O)cc1)N[*:1]]}$$$$V2.0)	–	–	–	–	–	–	T/C [7]: 110 % of control; T/C (dose: 200.0 mg/kg/injection, vehicle: saline): 123 % of control
CCCOC(=O)c1ccc(O)cc1	109 % of control	109 % of control	89 % of control	100 % of control	103 % of control	107 % of control	–
COC1=C(OC)C(=O)C(SC/C=C(\C)CCCC(C)CCCC(C)CCCC(C)C)=CC1=O (configuration not stated)	101 % of control and 103 % of control	121 % of control and 106 % of control	117 % of control	–	109 % of control and 94 % of control	116 % of control	T/C (dose: 6.25 mg/kg/injection, vehicle: saline with Tween-80): 100 % of control
NC(CNc1ccc(O)cc1)C(=O)O (configuration not stated)	–	–	–	–	–	–	T/C (dose: 75.0 mg/kg/injection, vehicle: saline): 111 % of control; T/C [7]: 103 % of control; T/C (dose: 150.0 mg/kg/injection, vehicle: saline): 101 % of control
CC(=O)Nc1cscc1NC(C)=O	94 % of control and 102 % of control	111 % of control and 100 % of control	94 % of control	96 % of control and 104 % of control	–	108 % of control and 99 % of control	–
CC(C#N)(C#N)N=Nc1ccc(Cl)cc1Cl	95 % of control	95 % of control	95 % of control	89 % of control	98 % of control	110 % of control	–
CCN(CC)CC(=O)c1ccc(O)c(O)c1	–	–	92 % of control	117 % of control	–	107 % of control	–
Nc1ccc2cc(S(=O)(=O)O)cc(O)c2c1N=Nc1ccc(F)cc1	95 % of control	98 % of control	90 % of control	–	–	–	–
